# Where two headings read alike, the source gives them in different places.
# What was measured:
# [1] = acute lethal toxicity (ALD50); settings: mouse, in vivo, ip; intraperitoneal, groups of four mice; read-out: Toxicity ALD50 (acute lethal dose in 50% of the mice tested)
# Description: (§1) The results are expressed in ED50 's (intraperitoneal dose effecting a 50% inhibition of ptosis of tetrabenzazine-induced depression in mice). The doses are in mg/kg of body weight. […] The toxicity data is expressed in ALD50 's (the acute lethal intraperitoneal dose, mg/kg of body weight, in 50% of the mice tested).
# [2] = system: 2-phenyl-1,4-quinone-induced writhing; assay: 2-phenyl-1,4-quinone-induced writhing assay (analgesia); type: in vivo; settings: 50 mg/kg of body weight oral dose, mice
# Description: Exptl. Biol. Med., Vol. 45, 729 (1957)].
# [3] = system: supra maximal electro shock; assay: protection from supra maximal electro shock, anticonvulsant activity (method of Woodbury and Davenport); type: in vivo; settings: intraperitoneal dose of about 5 mg/kg of body weight
# Experimental: The compounds of the invention are useful as anticonvulsant agents for mammals, as determined by the method of Woodbury, L. A. and Davenport, V. D., in Arch. Int. Pharmacodynam, Vol. 92, (1952) at pages 97-107. For example, 1'-amino-1,3-dihydro-3-phenylspiro[isobenzofuran-1,4'-piperidine]at an intraperitoneal dose of about 5 mg/kg of body weight produced a 50% protection from the effect of a supra maximal electro shock. This datum illustrates the utility of the compounds of the invention for the treatment of convulsion in mammals when administered in amounts ranging from 0.1 to 50 mg/kg of body weight per day.
# [4] = system: tetrabenzazine-induced depression; assay: inhibition of tetrabenzazine-induced depression (ptosis), antidepressant activity; type: in vivo, mice; settings: Mus musculus, ip, read-out: Antidepressant ED50 (50% inhibition of ptosis of tetrabenzazine-induced depression)
# Description: as §1
SMILES,LD50 [1] [mg/kg],inhibition of writhing [2] [%],protection from the effect of a supra maximal electro shock [3] [%],"ED50 ([4]; intraperitoneal, mice) [mg/kg]",ED50 [4] [mg/kg]
"NN1CCC2(CC1)OC(c1ccccc1)c1ccccc12 (stereo not drawn) [Example 2, 1'-amino-1,3-dihydro-3-phenylspiro[isobenzofuran-1,4'-piperidine]]",100,53,50,10.3,–
"CC(C)NN1CCC2(CC1)OC(c1ccccc1)c1ccccc12 (stereo not drawn) [Example 3, 1'-(isopropylamino)1,3'-dihydro-3-phenylspiro[isobenzofuran-1,4'-piperidine]]",–,27,–,–,–
"O=C(ON1CCC2(CC1)OC(c1ccccc1)c1ccccc12)c1ccccc1 (stereo not drawn) [Example 4, 1'-benzoyloxy-1,3-dihydro-3-phenylspiro[isobenzofuran-1,4'-piperidine]]",–,54,–,–,–
"ON1CCC2(CC1)OC(c1ccccc1)c1ccccc12 (stereo not drawn) [Example 8, 1'-hydroxy-1,3-dihydro-3-phenylspiro[isobenzofuran-1,4'-piperidine]]",> 562,53,–,1.4,–
"COc1ccc(C2OC3(CCN(O)CC3)c3ccccc32)cc1 (stereo not drawn) [Example 9, 1'-hydroxy-1,3-dihydro-3-(4-methoxyphenyl)spiro[isobenzofuran-1,4'-piperidine]]",> 562,–,–,2.6,–
"COc1ccc2c(c1)C1(CCN(O)CC1)OC2c1ccccc1 (stereo not drawn) [Example 10, 1'-hydroxy-1,3-dihydro-6-methoxy-3-phenylspiro[isobenzofuran-1,4'-piperidine]]",> 562,–,–,3.2,–
"ON1CCC2(CC1)OC(c1ccc(F)cc1)c1ccccc12 (stereo not drawn) [Example 11, 1'-hydroxy-1,3-dihydro-3-(4-fluorophenyl)spiro[isobenzofuran-1,4'-piperidine]]",316,–,–,4,–
"C[N+]1([O-])CCC2(CC1)OC(c1ccccc1)c1ccccc12 (stereo not drawn) [Example 12, 1,3-dihydro-1'-methyl-3-phenylspiro[isobenzofuran-1,4'-piperidine]-1'-oxide]",280,–,–,–,6.5
"[O-][N+]1(Cc2ccccc2)CCC2(CC1)OC(c1ccccc1)c1ccccc12 (stereo not drawn) [Example 13, 1'-benzyl-1,3-dihydro-3-phenylspiro[isobenzofuran-1,4'-piperidine]-1'-oxide]",–,48,–,–,–
